Source: US7501410B2, “Methods of inhibiting BTK and SYK protein kinases” (Roche Palo Alto LLC, priority 2006, dated 2009)

The compounds below were run on Ramos cells (assay: Inhibition of B-cell activation, B cell FLIPR assay in Ramos cells). Details: Homo sapiens, anti-IgM stimulated intracellular calcium increase.
Type: cell-based
From the text: Inhibition of B-cell Activation—B Cell FLIPR Assay in Ramos Cells
The B cell FLIPR assay is a cell based functional method of determining the effect of potential inhibitors of the intracellular calcium increase from stimulation by an anti-IgM antibody. Ramos cells (human Burkitt's lymphoma cell line. ATCC-No. CRL-1596) were cultivated in Growth Media (described below). One day prior to assay, Ramos cells were resuspended in fresh growth media (same as above) and set at a concentration of 0.5×10^6/mL in tissue culture flasks. On day of assay, cells were counted and set at a concentration of 1×10^6/mL in growth media supplemented with 1 μM FLUO-3 AM(TefLabs Cat-No. 0116, prepared in anhydrous DMSO and 10% Pluronic acid) in a tissue culture flask, and incubated at 37° C. (4% CO2) for 1 h. To remove extracellular dye, cells were collected by centrifugation (5 min, 1000 rpm), resuspended in FLIPR buffer (described below) at 1×10^6 cells/mL and then dispensed into 96-well poly-D-lysine coated black/clear plates (BD Cat-No. 356692) at 1×10^5 cells per well. Test compounds at seven concentrations ranging from 100 μM to 0.03 μM were added, and allowed to incubate with cells for 30 min at RT. Ramos cell Ca^2+ signaling was stimulated by the addition of 10 μg/mL anti-IgM (Southern Biotech, Cat-No. 2020-01) and measured on a FLIPR (Molecular Devices, captures images of 96 well plates using a CCD camera with an argon laser at 480 nm excitation).
Growth Medium: RPMI 1640 medium with L-glutamine (Invitrogen, Cat-No. 61870-010), 10% Fetal Bovine Serum (FBS, Summit Biotechnology Cat-No. FP-100-05); 1 mM Sodium Pyruvate (Invitrogen Cat. No. 11360-070).
FLIPR buffer: HBSS (Invitrogen, Cat-No. 141175-079),2 mM CaCl2 (Sigma Cat-No. C-4901), HEPES (Invitrogen, Cat-No. 15630-080), 2.5 mM Probenecid (Sigma, Cat-No. P-8761), 0.1% BSA (Sigma, Cat-No. A-7906), 11 mM Glucose (Sigma, Cat-No. G-7528).
In order to achieve the highest final assay concentration of 100 μM, 24 μL of 10 mM compound stock solution (made in DMSO) is added directly to 576 μL of FLIPR buffer. The test compounds are diluted in FLIPR Buffer (using Biomek 2000 robotic pipettor) resulting in the following dilution scheme: vehicle, 1.00×10^−4 M, 1.00×10^−5, 3.16×10^−6, 1.00×10^−6, 3.16×10^−7, 1.00×10^−7, 3.16×10^−8.
Intracellular increases in calcium were reported using a max-min statistic (subtracting the resting baseline from the peak caused by addition of the stimulatory antibody using a Molecular Devices FLIPR control and statistic exporting software. The IC50 was determined using a non-linear curve fit (GraphPad Prism software). Representative results are in Table 1.

Row | SMILES | IC50 [µM]
1 | Cc1cc(Nc2nn(C(C)C)c(=O)c3cc(N4CCOCC4)ccc23)n[nH]1 [Example F-1, 2-Isopropyl-4-(5-methyl-1H-pyrazol-3-ylamino)-7-morpholino-2H-phthalazin-1-one] | 1.2
2 | Cc1cc(Nc2nn(C(C)C)c(=O)c3cc(N4CCN(C)CC4)ccc23)[nH]n1 [Example F-5, 2-Isopropyl-7-(4-methyl-piperazin-1-yl)-4-(5-methyl-2H-pyrazol-3-ylamino)-2H-phthalazin-1-one] | 0.41
3 | Cc1cc(Nc2nn(C(C)C)c(=O)c3cc(OCCN(C)C)ccc23)n[nH]1 [Example ZD-5, 7-(2-Dimethylamino-ethoxy)-2-isopropyl-4-(5-methyl-1H-pyrazol-3-ylamino)-2H-phthalazin-1-one] | 0.575
